Data on four compounds can be found in the kinase profiling compilation of Christmann-Franck et al. (2016).

Common to all, as to assay: radiometric filter-binding kinase assay, Kinaseprofiler
Experiment [1] concerns MERTK (human), Q12866 [H628Q/R794A]. The note with it: ATP 45 µM.
Experiment [2] relates to MARK1 (human), Q9P0L2 [V16E/T20S]. The note with it: ATP 10 µM.
Experiment [3] relates to RAF1 (human), P04049 [Y340D/Y341D]. The note with it: ATP 45 µM.
Experiment [4] relates to MAPKAPK2 (human), P49137 [A399G]. The note with it: ATP 90 µM.
Experiment [5] deals with AURKA (human), O14965 [I31F]. The following applies: ATP 15 µM.
For experiment [6], the system named is AKT2 (human), P31751 [S474D]. The following applies: ATP 200 µM.
For experiment [7], the system named is TEC (human), P42680 [F514V]. The note with it: ATP 120 µM.
The subject of experiment [8] is PRKCH (human), P24723 [V108L/G109R/L392Q]. The note with it: ATP 45 µM.

The term residual activity denotes the signal under treatment as a percentage of the control signal.

Chain of MAPKAPK2 (human), P49137 [A399G] (P49137 whole entry A399G, looked up): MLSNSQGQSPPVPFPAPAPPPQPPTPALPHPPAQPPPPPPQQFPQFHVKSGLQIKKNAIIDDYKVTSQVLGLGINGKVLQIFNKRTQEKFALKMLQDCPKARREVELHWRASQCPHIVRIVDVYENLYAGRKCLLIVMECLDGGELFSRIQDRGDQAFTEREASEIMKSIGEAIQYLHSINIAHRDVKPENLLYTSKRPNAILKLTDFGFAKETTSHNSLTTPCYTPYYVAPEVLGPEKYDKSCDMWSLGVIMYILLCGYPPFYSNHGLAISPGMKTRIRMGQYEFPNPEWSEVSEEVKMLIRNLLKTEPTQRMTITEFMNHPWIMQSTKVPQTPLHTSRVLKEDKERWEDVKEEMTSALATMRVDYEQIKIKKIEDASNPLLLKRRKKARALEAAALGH
Chain of AURKA (human), O14965 [I31F] (O14965 whole entry, looked up, stated change not applied): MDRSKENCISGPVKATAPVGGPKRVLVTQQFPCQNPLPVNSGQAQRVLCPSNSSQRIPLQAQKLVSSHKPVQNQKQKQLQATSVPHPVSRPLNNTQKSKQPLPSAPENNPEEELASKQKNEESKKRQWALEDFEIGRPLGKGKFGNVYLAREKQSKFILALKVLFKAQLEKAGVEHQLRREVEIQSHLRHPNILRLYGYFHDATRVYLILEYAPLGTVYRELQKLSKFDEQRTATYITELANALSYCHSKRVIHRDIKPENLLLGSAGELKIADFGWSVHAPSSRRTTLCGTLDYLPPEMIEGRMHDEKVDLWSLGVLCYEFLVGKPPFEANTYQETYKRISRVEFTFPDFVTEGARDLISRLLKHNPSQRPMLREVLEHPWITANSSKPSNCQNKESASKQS
Chain of AKT2 (human), P31751 [S474D] (P31751 whole entry S474D, looked up): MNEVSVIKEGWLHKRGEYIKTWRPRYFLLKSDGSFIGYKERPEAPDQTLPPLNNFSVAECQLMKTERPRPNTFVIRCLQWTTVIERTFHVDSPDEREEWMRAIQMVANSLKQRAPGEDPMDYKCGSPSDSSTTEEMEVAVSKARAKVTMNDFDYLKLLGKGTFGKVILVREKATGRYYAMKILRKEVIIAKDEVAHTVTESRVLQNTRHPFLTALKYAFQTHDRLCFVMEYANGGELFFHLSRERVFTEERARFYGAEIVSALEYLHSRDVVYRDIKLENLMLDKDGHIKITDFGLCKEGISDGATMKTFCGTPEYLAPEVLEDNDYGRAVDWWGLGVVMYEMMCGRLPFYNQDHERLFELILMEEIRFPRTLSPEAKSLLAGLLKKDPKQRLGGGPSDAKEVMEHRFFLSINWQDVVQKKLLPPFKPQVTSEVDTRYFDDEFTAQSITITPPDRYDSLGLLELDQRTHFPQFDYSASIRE
Chain of MERTK (human), Q12866 [H628Q/R794A] (Q12866 whole entry, looked up, stated change not applied): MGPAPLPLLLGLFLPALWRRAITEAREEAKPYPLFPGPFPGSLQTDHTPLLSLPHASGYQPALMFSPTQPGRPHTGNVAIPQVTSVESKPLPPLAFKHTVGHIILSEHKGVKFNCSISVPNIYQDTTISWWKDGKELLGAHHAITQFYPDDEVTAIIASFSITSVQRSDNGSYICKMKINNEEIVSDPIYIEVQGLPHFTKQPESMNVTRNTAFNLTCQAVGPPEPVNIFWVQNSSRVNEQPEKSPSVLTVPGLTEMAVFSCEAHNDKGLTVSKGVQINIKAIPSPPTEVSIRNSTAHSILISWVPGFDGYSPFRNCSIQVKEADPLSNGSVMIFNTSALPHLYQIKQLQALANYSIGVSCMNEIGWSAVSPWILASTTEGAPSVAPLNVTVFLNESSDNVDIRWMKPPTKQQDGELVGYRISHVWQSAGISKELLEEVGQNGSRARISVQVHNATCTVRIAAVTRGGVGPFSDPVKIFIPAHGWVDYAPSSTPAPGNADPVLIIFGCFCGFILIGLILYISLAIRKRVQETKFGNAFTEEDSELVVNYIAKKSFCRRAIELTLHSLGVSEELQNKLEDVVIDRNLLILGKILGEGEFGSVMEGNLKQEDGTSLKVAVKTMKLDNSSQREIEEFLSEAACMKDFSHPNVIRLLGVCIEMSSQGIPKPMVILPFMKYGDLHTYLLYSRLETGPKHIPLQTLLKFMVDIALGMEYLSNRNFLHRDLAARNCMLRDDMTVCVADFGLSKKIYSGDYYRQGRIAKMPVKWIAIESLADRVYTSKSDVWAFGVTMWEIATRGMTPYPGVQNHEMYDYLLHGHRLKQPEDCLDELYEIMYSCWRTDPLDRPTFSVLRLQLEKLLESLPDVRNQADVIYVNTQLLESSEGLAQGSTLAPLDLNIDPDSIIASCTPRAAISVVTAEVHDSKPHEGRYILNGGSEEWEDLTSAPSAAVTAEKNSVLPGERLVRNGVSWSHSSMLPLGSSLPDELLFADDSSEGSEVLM
Chain of PRKCH (human), P24723 [V108L/G109R/L392Q] (P24723 whole entry, looked up, stated change not applied): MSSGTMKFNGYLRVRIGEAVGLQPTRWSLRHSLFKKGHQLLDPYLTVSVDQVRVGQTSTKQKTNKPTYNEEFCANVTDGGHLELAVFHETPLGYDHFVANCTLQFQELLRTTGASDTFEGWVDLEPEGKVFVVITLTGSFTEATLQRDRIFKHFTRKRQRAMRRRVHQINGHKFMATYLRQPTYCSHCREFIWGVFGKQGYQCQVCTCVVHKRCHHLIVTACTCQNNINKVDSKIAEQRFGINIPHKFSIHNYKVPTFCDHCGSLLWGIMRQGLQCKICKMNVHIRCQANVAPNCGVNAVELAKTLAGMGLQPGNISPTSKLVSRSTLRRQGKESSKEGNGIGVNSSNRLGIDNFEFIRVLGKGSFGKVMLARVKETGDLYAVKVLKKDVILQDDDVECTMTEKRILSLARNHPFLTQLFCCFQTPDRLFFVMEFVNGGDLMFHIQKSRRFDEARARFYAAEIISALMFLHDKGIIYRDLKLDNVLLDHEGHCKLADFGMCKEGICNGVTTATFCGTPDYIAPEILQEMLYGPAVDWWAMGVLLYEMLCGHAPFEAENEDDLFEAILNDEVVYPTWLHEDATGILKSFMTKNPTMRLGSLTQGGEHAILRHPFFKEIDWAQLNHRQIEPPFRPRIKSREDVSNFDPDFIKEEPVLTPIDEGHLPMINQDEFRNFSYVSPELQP
Chain of MARK1 (human), Q9P0L2 [V16E/T20S] (Q9P0L2 whole entry, looked up, stated change not applied): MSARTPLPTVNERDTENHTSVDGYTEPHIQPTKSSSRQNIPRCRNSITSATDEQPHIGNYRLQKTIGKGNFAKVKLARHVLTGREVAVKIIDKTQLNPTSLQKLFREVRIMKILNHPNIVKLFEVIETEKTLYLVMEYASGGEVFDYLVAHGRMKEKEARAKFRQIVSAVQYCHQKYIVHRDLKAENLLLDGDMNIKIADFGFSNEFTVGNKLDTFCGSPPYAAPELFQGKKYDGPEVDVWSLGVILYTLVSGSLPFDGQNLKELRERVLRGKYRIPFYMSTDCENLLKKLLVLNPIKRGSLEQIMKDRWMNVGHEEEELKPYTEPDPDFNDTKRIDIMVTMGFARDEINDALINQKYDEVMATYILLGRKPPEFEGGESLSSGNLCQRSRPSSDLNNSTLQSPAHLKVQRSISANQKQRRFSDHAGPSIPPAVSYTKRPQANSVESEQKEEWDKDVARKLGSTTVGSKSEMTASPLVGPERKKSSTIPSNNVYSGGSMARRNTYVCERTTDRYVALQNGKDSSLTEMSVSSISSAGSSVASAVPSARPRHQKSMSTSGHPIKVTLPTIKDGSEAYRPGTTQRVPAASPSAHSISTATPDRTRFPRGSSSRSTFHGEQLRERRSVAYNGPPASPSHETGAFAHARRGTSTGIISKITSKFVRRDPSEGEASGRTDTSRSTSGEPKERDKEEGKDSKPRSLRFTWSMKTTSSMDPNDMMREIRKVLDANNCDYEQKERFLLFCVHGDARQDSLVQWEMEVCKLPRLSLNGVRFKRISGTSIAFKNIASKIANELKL
Chain of TEC (human), P42680 [F514V] (P42680 whole entry, looked up, stated change not applied): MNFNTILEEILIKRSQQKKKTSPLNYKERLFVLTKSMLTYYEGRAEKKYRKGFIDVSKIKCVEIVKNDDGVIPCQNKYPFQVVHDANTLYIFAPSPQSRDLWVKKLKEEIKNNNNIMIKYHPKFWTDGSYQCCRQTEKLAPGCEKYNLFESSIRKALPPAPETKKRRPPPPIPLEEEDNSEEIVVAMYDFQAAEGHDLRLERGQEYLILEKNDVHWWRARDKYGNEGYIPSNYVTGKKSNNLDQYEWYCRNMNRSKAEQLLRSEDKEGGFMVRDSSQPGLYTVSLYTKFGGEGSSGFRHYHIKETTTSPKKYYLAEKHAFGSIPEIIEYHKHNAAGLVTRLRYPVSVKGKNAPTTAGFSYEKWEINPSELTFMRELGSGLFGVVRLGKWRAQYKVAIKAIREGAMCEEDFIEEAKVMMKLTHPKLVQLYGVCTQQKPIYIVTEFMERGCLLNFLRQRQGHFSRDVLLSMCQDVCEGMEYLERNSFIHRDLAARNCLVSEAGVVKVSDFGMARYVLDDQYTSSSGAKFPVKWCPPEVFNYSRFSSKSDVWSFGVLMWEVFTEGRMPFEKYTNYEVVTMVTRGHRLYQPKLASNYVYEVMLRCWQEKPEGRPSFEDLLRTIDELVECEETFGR

Regarding `CN[C@@H]1C[C@H]2O[C@@](C)([C@@H]1OC)n1c3ccccc3c3c4c(c5c6ccccc6n2c5c31)C(=O)NC4`, the residual activity in experiment [1] (compound 10.0 µM) came to 0%; in experiment [2] (compound 1.0 µM) it was 0%; in experiment [3] (compound 10.0 µM) it was 80%.
Turning to `COC(=O)[C@]1(O)C[C@@H]2O[C@@]1(C)n1c3ccccc3c3c4c(c5c6ccccc6n2c5c31)C(=O)NC4`, the residual activity was 0% in experiment [1] (compound 10.0 µM); 0% in experiment [2] (compound 1.0 µM); 0% in experiment [2] (compound 10.0 µM); 0% in experiment [4] (compound 1.0 µM); -6% in experiment [4] (compound 10.0 µM); -1% in experiment [5] (compound 10.0 µM).
`O=C1Nc2ccccc2/C1=C1\Nc2ccccc2\C1=N/O`: the residual activity in experiment [6] (compound 1.0 µM) is 98%; in experiment [6] (compound 10.0 µM), 92%; in experiment [1] (compound 1.0 µM), -2%; in experiment [1] (compound 10.0 µM) it was -3%; in experiment [2] (compound 1.0 µM) it was 37%; in experiment [2] (compound 10.0 µM), 5%. Moreover, the residual activity in experiment [7] (compound 1.0 µM) turned out to be 64%; in experiment [7] (compound 10.0 µM) it was 22%; in experiment [4] (compound 1.0 µM) it was 101%; in experiment [4] (compound 10.0 µM), 76%; in experiment [8] (compound 1.0 µM), 91%; in experiment [8] (compound 10.0 µM), 83%. Further, the residual activity stood at 89% in experiment [3] (compound 1.0 µM), 66% in experiment [3] (compound 10.0 µM), 7% in experiment [5] (compound 1.0 µM) and 0% in experiment [5] (compound 10.0 µM).
Regarding `O=C1c2ccccc2-c2n[nH]c3cccc1c23`, the residual activity in experiment [6] (compound 1.0 µM) was 104%; in experiment [6] (compound 10.0 µM), 105%; in experiment [1] (compound 1.0 µM), 22%; in experiment [1] (compound 10.0 µM), 9%; in experiment [2] (compound 1.0 µM) it was 38%; in experiment [2] (compound 10.0 µM), 6%. Further, the residual activity in experiment [7] (compound 1.0 µM) stood at 89%; in experiment [7] (compound 10.0 µM) it was 57%; in experiment [4] (compound 1.0 µM), 79%; in experiment [4] (compound 10.0 µM), 69%; in experiment [8] (compound 1.0 µM), 86%; in experiment [8] (compound 10.0 µM), 82%. Also, the residual activity in experiment [3] (compound 1.0 µM) worked out at 69%; in experiment [3] (compound 10.0 µM), 61%; in experiment [5] (compound 1.0 µM), 19%; in experiment [5] (compound 10.0 µM) it was 2%.
